Legend:
[1] = target: T1, HIV-1 protease (Human immunodeficiency virus type 1 group M subtype B, UniProt P04585); experiment: biochemical; details: 6.0 nM HIV-1 protease, 40 μM substrate III, 37° C., 5 minutes; read-out: Inhib of HIV-Protease IC50
T1 construct: Recombinant HIV-1 protease (>96% purity); purchased Bachem Bioscience Inc. (King of Prussia, PA)
From the text: The testing of specific 5,6-dihydropyrones as inhibitors of the HIV aspartyl protease, based on the study of the hydrolysis of an undecapeptide enzyme substrate, and the testing of the 5,6-dihydropyrones as inhibitors of viral growth and infectivity, based on the study of infection of H9 cell lines by the HIV-1iiib strain, are also disclosed. […] The methods employed follow the procedures of Tummino, et al. (Archives of Biochemistry and Biophysics 1995, 316, 523).
(§1) The compounds of the present invention were evaluated for their in vitro inhibition of HIV-1 protease and for their antiviral efficacy in HIV infected lymphocytes.
Recombinant HIV-1 protease (>96% purity) and HIV protease substrate III (the undecapeptide H-His-Lys-Ala-Arg-Val-Leu-Nph-Glu-Ala-Nle-Ser-NH2,>97% purity) were purchased from Bachem Bioscience Inc. (King of Prussia, PA).
The methods employed follow the procedures of Tummino, et al. (Archives of Biochemistry and Biophysics 1995, 316, 523). […] (total volume, 100 μl). […] The final inhibitor concentrations used were 0 (0.1, 0.2, in some experiments), 0.5, 1, 2, 5, 10, 20, 50, and 100 μM. The solution was mixed, incubated for 5 minutes and the reaction quenched by addition of trifluoracetic acid, 2% final. The (leu-p-nitro-phe) bond of the substrate is cleaved by the enzyme and substrate and products separated by reverse-phase HPLC. Absorbance was measured at 220 nm, peak areas determined, and percentage conversion to product used to calculate percentage control (=[% conversion (+inhibitor)/% conversion (-inhibitor)]×100).

[2] = system: HIV in lymphocyte derived CEM cells; experiment: Cellular Infection Assay, antiviral efficacy in HIV infected CEM cells (XTT cytopathic procedure); format: cell-based; details: Human immunodeficiency virus 1, CCRF-CEM, CEM cells; for EC95: protecting the cells 95% relative to untreated control; for EC50: reduces HIV cytopathic effects 50% relative to untreated control, read-out: Antiviral Efficacy EC50
Procedure: as §1
(§2) Compounds were tested in lymphocyte derived CEM cells using the XTT cytopathic procedures and were performed at Southern Research Institute (Buckheit, et. al. Antiviral Res. 1993, 21, 247; see also Weislow, et al. J Nat. Cancer Inst., 1989, 81, 577). Compound concentrations were 0.32, 1, 3.2, 10, 32 and 100 uM. The EC50 represents the concentration of agent which reduces HIV cytopathic effects 50% relative to untreated control. EC95 represents the concentration of agent protecting the cells 95% relative to untreated control. Cellular toxicity of the agents are estimated from the TC50 which represents the concentration of the agent which inhibits 50% of the viability of uninfected cells.

[3] = Cellular toxicity in uninfected CEM cells (TC50); format: cell-based; details: human, inhibits 50% of the viability of uninfected cells
Procedure: as §2

SMILES | IC50 [1] | EC50 [2] | EC95 [2] | CC50 [3]
Cc1cc(SC2=C(O)CC(CCc3ccc(O)cc3)(C(C)C)OC2=O)c(C(C)(C)C)cc1NC(=S)N1CCNCC1 (centres unmarked) [Example 83] | 0.041 µM | 43 µM | 92 µM | > 100 µM
Cc1cc(SC2=C(O)CC(CCc3ccc(O)cc3)(C3CCC3)OC2=O)c(C(C)(C)C)cc1CO (centres unmarked) [Example 98] | 0.0022 µM | 0.8 µM | 1.9 µM | > 100 µM
Cc1ccc(C(C)(C)C)c(SC2=C(O)CC(CCc3ccccc3)(CCc3ccccc3)OC2=O)c1 [Ref A, 3-(2-tert-Butyl-5-methyl-phenylsulfanyl)-4-hydroxy-6,6-diphenethyl-5,6-dihydro-pyran-2-one, reference compound] | 0.15 µM | > 23 µM |  | 23 µM
Cc1ccc(C(C)(C)C)c(SC2=C(O)CC(CCc3ccccc3)(CCC(C)C)OC2=O)c1 (centres unmarked) [Ref C, 3-(2-tert-Butyl-5-methyl-phenylsulfanyl)-4-hydroxy-6-(3-methyl-butyl)-6-phenethyl-5,6-dihydro-pyran-2-one, reference compound] | 0.07 µM | > 28 µM |  | 28 µM

Further compounds by falling IC50 [1], results first:

IC50 [1] | EC50 [2] | SMILES | EC95 [2] | CC50 [3]
0.012 µM | 32 µM | CCNS(=O)(=O)Oc1cc(C(C)(C)C)c(SC2=C(O)CC(CCc3ccc(O)cc3)(C3CCN(C(C)=O)CC3)OC2=O)cc1C (centres unmarked) [Example 89] | 89 µM | > 100 µM
0.011 µM | 1.9 µM | Cc1cc(SC2=C(O)CC(CCc3ccc(O)cc3)(C(C)C)OC2=O)c(C(C)(C)C)cc1N(C)C (centres unmarked) [Example 93] | 10 µM | 68 µM
0.0013 µM | 0.4 µM | Cc1cc(SC2=C(O)CC(CCc3ccc(N)cc3)(C(C)C)OC2=O)c(C(C)(C)C)cc1OS(=O)(=O)c1ccc(C#N)cc1 (centres unmarked) [Example 86] | 3.7 µM | 53 µM

Source: patent US5834506A, “Dihydropyrones with improved antiviral activity” (Warner-Lambert Company, priority 1997, dated 1998)
